# According to US20210238225A1, “PEPTIDOMIMETIC INHIBITORS OF THE PEPTIDYL-PROLYL CIS/TRANS ISOMERASE (PIN1)” (DANA-FARBER CANCER INSTITUTE, INC., priority 2018, published 2021):
# Non-standard residues stand in square brackets, D forms with d. Residues, ends and D or L forms follow the SMILES beside them. *: point of attachment. alloThr(PO3H2) = C[C@H](OP(=O)(O)O)[C@H](N)C(=O)O; Phe(4-CONH2) = NC(=O)c1ccc(C[C@H](N)C(=O)O)cc1; Bpa = N[C@@H](Cc1ccc(C(=O)c2ccccc2)cc1)C(=O)O; 2Nal = N[C@@H](Cc1ccc2ccccc2c1)C(=O)O; Met(O2) = CS(=O)(=O)CC[C@H](N)C(=O)O; β3hE = N[C@@H](CCC(=O)O)CC(=O)O; Cha = N[C@@H](CC1CCCCC1)C(=O)O; Cit = NC(=O)NCCC[C@H](N)C(=O)O; aThr = C[C@H](O)[C@H](N)C(=O)O; Pip = O=C(O)[C@@H]1CCCCN1; Ac6c = NC1(C(=O)O)CCCCC1; 2Abz = Nc1ccccc1C(=O)O; ClAc = O=C(CCl)*
# Target: Pin1 (GST-Pin1) (Homo sapiens, UniProt Q13526)
# Sequence (Q13526 whole entry): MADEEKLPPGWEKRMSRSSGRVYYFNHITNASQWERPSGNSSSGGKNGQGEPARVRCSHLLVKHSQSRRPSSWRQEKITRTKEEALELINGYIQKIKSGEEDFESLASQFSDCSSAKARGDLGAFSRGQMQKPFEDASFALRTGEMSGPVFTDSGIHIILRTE
# Assay: Fluorescence polarization (FP) assay, binding to Pin1
# Details: Ki, μM (FP Assay), competition with fluorescein-labeled peptide probe; 12 hours pre-incubation at 4° C.; Kenakin Ki equation
row,SMILES,Ki [µM]
1,"NC(=O)NCCC[C@H](NC(=O)[C@H](Cc1ccc2ccccc2c1)NC(=O)C1(NC(=O)[C@H](CCC(=O)O)NC(=O)CCl)CCCCC1)C(N)=O [Compound 2-10, (S)-5-((1-(((S)-1-(((S)-1-Amino-1-oxo-5-ureidopentan-2-yl)amino)-3-(naphthalen-2-yl)-1-oxopropan-2-yl)carbamoyl)cyclohexyl)amino)-4-(2-chloroacetamido)-5-oxopentanoic acid] (ClAc-E[Ac6c][2Nal][Cit]-NH2)",> 10
2,"NC(=O)NCCC[C@H](NC(=O)[C@H](Cc1ccc2ccccc2c1)NC(=O)[C@H](CC1CCCCC1)NC(=O)[C@H](CCC(=O)O)NC(=O)CCl)C(N)=O [Compound 2-15, (6S,9S,12S,15S)-1-Amino-6-carbamoyl-15-(2-chloroacetamido)-12-(cyclohexylmethyl)-9-(naphthalen-2-ylmethyl)-1,8,11,14-tetraoxo-2,7,10,13-tetraazaoctadecan-18-oic acid] (ClAc-E[Cha][2Nal][Cit]-NH2)",> 10

# Same assay, conditions: competition with fluorescein-labeled peptide probe; 12 hours pre-incubation at 4° C.; Kenakin Ki equation; read-out: Ki, μM (FP Assay)
row,SMILES,Ki [µM]
1,"COC(=O)CC[C@H](NC(=O)CCl)C(=O)N1CCCC[C@H]1C(=O)N[C@@H](Cc1c[nH]c2ccccc12)C(=O)N[C@@H](Cc1ccc(O)cc1)C(=O)NCc1ccc(C)cc1 (single isomer, unassigned) [Compound 11-26]",> 10
2,"COC(=O)CC[C@H](NC(=O)CCl)C(=O)N1CCCC[C@H]1C(=O)N[C@@H](Cc1c[nH]c2ccccc12)C(=O)N[C@@H](CCCNC(N)=O)C(N)=O [Compound 2, Methyl (S)-5-((S)-2-(((S)-1-(((S)-1-amino-1-oxo-5-ureidopentan-2-yl)amino)-3-(1H-indol-3-yl)-1-oxopropan-2-yl)carbamoyl)piperidin-1-yl)-4-(2-chloroacetamido)-5-oxopentanoate] (ClAc-E(OMe)[Pip]W[Cit]-NH2)",0.074
3,"NC(=O)CC[C@H](NC(=O)[C@H](Cc1ccc2ccccc2c1)NC(=O)[C@@H]1CCCCN1C(=O)[C@@H](CC(=O)O)NC(=O)CCl)C(N)=O [Compound 2-1, (R)-3-(2-Chloroacetamido)-4-((S)-2-(((S)-1-(((S)-1,5-diamino-1,5-dioxopentan-2-yl)amino)-3-(naphthalen-2-yl)-1-oxopropan-2-yl)carbamoyl)piperidin-1-yl)-4-oxobutanoic acid] (ClAc-[dD][Pip][2Nal]Q-NH2)",> 10
4,"NC(=O)CC[C@H](NC(=O)[C@H](Cc1ccc2ccccc2c1)NC(=O)[C@@H]1CCCCN1C(=O)[C@H](CC(=O)O)NC(=O)CCl)C(N)=O [Compound 2-2, (S)-3-(2-Chloroacetamido)-4-((S)-2-(((S)-1-(((S)-1,5-diamino-1,5-dioxopentan-2-yl)amino)-3-(naphthalen-2-yl)-1-oxopropan-2-yl)carbamoyl)piperidin-1-yl)-4-oxobutanoic acid] (ClAc-D[Pip][2Nal]Q-NH2)",> 10
5,"CS(=O)(=O)CC[C@H](NC(=O)CCl)C(=O)N1CCCC[C@H]1C(=O)N[C@@H](Cc1ccc2ccccc2c1)C(=O)N[C@@H](CCC(N)=O)C(N)=O [Compound 2-3, (S)-2-((S)-2-((S)-1-((S)-2-(2-Chloroacetamido)-4-(methylsulfonyl)butanoyl)piperidine-2-carboxamido)-3-(naphthalen-2-yl)propanamido)pentanediamide] (ClAc-[Met(O2)][Pip][2Nal]Q-NH2)",> 10
6,"C[C@H](OP(=O)(O)O)[C@H](NC(=O)CCl)C(=O)N1CCCC[C@H]1C(=O)N[C@@H](Cc1ccc2ccccc2c1)C(=O)N[C@@H](CCC(N)=O)C(N)=O [Compound 2-4, (2S,3S)-3-(2-Chloroacetamido)-4-((S)-2-(((S)-1-(((S)-1,5-diamino-1,5-dioxopentan-2-yl)amino)-3-(naphthalen-2-yl)-1-oxopropan-2-yl)carbamoyl)piperidin-1-yl)-4-oxobutan-2-yl dihydrogen phosphate] (ClAc-[alloThr(PO3H2)][Pip][2Nal]Q-NH2)",1.24
7,"C[C@H](OP(=O)(O)O)[C@H](NC(=O)CCl)C(=O)N1CCCC[C@H]1C(=O)N[C@@H](Cc1ccc2ccccc2c1)C(=O)N[C@@H](CCCNC(=N)N)C(N)=O [Compound 2-5, (2S,3S)-4-((S)-2-(((S)-1-(((S)-1-Amino-5-guanidino-1-oxopentan-2-yl)amino)-3-(naphthalen-2-yl)-1-oxopropan-2-yl)carbamoyl)piperidin-1-yl)-3-(2-chloroacetamido)-4-oxobutan-2-yl dihydrogen phosphate] (ClAc-[alloThr(PO3H2)][Pip][2Nal]R-NH2)",0.13
8,"C[C@H](O)[C@H](NC(=O)[C@H](Cc1ccc2ccccc2c1)NC(=O)[C@@H]1CCCCN1C(=O)[C@H](CCC(=O)O)NC(=O)CCl)C(N)=O [Compound 2-7, (S)-5-((S)-2-(((S)-1-(((2S,3S)-1-Amino-3-hydroxy-1-oxobutan-2-yl)amino)-3-(naphthalen-2-yl)-1-oxopropan-2-yl)carbamoyl)piperidin-1-yl)-4-(2-chloroacetamido)-5-oxopentanoic acid] (ClAc-E[Pip][2Nal][aThr]-NH2)",0.3
9,"NC(=O)C[C@H](NC(=O)[C@H](Cc1ccc2ccccc2c1)NC(=O)[C@@H]1CCCCN1C(=O)[C@H](CCC(=O)O)NC(=O)CCl)C(N)=O [Compound 2-8, (S)-4-(2-Chloroacetamido)-5-((S)-2-(((S)-1-(((S)-1,4-diamino-1,4-dioxobutan-2-yl)amino)-3-(naphthalen-2-yl)-1-oxopropan-2-yl)carbamoyl)piperidin-1-yl)-5-oxopentanoic acid] (ClAc-E[Pip][2Nal]N-NH2)",0.13
10,"NC(=O)c1ccc(C[C@H](NC(=O)[C@H](Cc2ccc3ccccc3c2)NC(=O)[C@@H]2CCCCN2C(=O)[C@H](CCC(=O)O)NC(=O)CCl)C(N)=O)cc1 [Compound 2-9, (S)-5-((S)-2-(((S)-1-(((S)-1-Amino-3-(4-carbamoylphenyl)-1-oxopropan-2-yl)amino)-3-(naphthalen-2-yl)-1-oxopropan-2-yl)carbamoyl)piperidin-1-yl)-4-(2-chloroacetamido)-5-oxopentanoic acid] (ClAc-E[Pip][2Nal][Phe(4-CONH2)]-NH2)",0.33
11,"NC(=O)NCCC[C@H](NC(=O)[C@H](Cc1ccc2ccccc2c1)NC(=O)[C@@H]1CCCCN1C(=O)C[C@H](CCC(=O)O)NC(=O)CCl)C(N)=O [Compound 2-12, (S)-6-((S)-2-(((S)-1-(((S)-1-Amino-1-oxo-5-ureidopentan-2-yl)amino)-3-(naphthalen-2-yl)-1-oxopropan-2-yl)carbamoyl)piperidin-1-yl)-4-(2-chloroacetamido)-6-oxohexanoic acid] (ClAc-[β3hE][Pip][2Nal][Cit]-NH2)",0.106
12,"NC(=O)[C@H](Cc1c[nH]c2ccccc12)NC(=O)[C@H](Cc1ccc2ccccc2c1)NC(=O)[C@@H]1CCCCN1C(=O)[C@H](CCC(=O)O)NC(=O)CCl [Compound 2-13, (S)-5-((S)-2-(((S)-1-(((S)-1-Amino-3-(1H-indol-3-yl)-1-oxopropan-2-yl)amino)-3-(naphthalen-2-yl)-1-oxopropan-2-yl)carbamoyl)piperidin-1-yl)-4-(2-chloroacetamido)-5-oxopentanoic acid] (ClAc-E[Pip][2Nal]W-NH2)",0.13
13,"CS(=O)(=O)CC[C@H](NC(=O)CCl)C(=O)N1CCCC[C@H]1C(=O)N[C@@H](Cc1ccc2ccccc2c1)C(=O)N[C@@H](CCCNC(N)=O)C(N)=O [Compound 2-14, (S)—N—((S)-1-(((S)-1-Amino-1-oxo-5-ureidopentan-2-yl)amino)-3-(naphthalen-2-yl)-1-oxopropan-2-yl)-1-((S)-2-(2-chloroacetamido)-4-(methylsulfonyl)butanoyl)piperidine-2-carboxamide] (ClAc-[Met(O2)][Pip][2Nal][Cit]-NH2)",0.13
14,"NC(=O)NCCC[C@H](NC(=O)[C@H](Cc1ccc2ccccc2c1)NC(=O)c1ccccc1NC(=O)[C@H](CCC(=O)O)NC(=O)CCl)C(N)=O [Compound 2-16, (S)-5-((2-(((S)-1-(((S)-1-Amino-1-oxo-5-ureidopentan-2-yl)amino)-3-(naphthalen-2-yl)-1-oxopropan-2-yl)carbamoyl)phenyl)amino)-4-(2-chloroacetamido)-5-oxopentanoic acid] (ClAc-E[2Abz][2Nal][Cit]-NH2)",> 10
15,"NC(=O)NCCC[C@H](NC(=O)[C@H](Cc1ccc(C(=O)c2ccccc2)cc1)NC(=O)[C@@H]1CCCCN1C(=O)[C@H](CCC(=O)O)NC(=O)CCl)C(N)=O [Compound 2-17, (S)-5-((S)-2-(((S)-1-(((S)-1-Amino-1-oxo-5-ureidopentan-2-yl)amino)-3-(4-benzoylphenyl)-1-oxopropan-2-yl)carbamoyl)piperidin-1-yl)-4-(2-chloroacetamido)-5-oxopentanoic acid] (ClAc-E[Pip][Bpa][Cit]-NH2)",0.11
16,"COC(=O)CC[C@H](NC(=O)CCl)C(=O)N1CCCC[C@H]1C(=O)N[C@@H](Cc1ccc2ccccc2c1)C(=O)N[C@@H](CCCNC(N)=O)C(N)=O [Compound 2-18, Methyl (S)-5-((S)-2-(((S)-1-(((S)-1-amino-1-oxo-5-ureidopentan-2-yl)amino)-3-(naphthalen-2-yl)-1-oxopropan-2-yl)carbamoyl)piperidin-1-yl)-4-(2-chloroacetamido)-5-oxopentanoate] (ClAc-E(OMe)[Pip][2Nal][Cit]-NH2)",0.14
17,"CC(=O)N[C@@H](CCC(=O)O)C(=O)N1CCCC[C@H]1C(=O)N[C@@H](Cc1ccc2ccccc2c1)C(=O)N[C@@H](CCCNC(N)=O)C(N)=O [Compound 2-19, (S)-4-Acetamido-5-((S)-2-(((S)-1-(((S)-1-amino-1-oxo-5-ureidopentan-2-yl)amino)-3-(naphthalen-2-yl)-1-oxopropan-2-yl)carbamoyl)piperidin-1-yl)-5-oxopentanoic acid] (Ac-E[Pip][2Nal][Cit]-NH2)",> 10
18,"C[C@H](O)[C@H](NC(=O)CCl)C(=O)N1CCCC[C@H]1C(=O)N[C@@H](Cc1c[nH]c2ccccc12)C(=O)N[C@@H](CCCNC(N)=O)C(N)=O [Compound 2-20, (S)—N—((S)-1-(((S)-1-Amino-1-oxo-5-ureidopentan-2-yl)amino)-3-(1H-indol-3-yl)-1-oxopropan-2-yl)-1-((2-chloroacetyl)-L-allothreonyl)piperidine-2-carboxamide] (ClAc-[aThr][Pip]W[Cit]-NH2)",0.122
